Test results from patent US12577584B2, “Non-HLA matched humanized NSG mouse model with patient-derived xenograft” (The Jackson Laboratory, priority 2015, dated 2026).
“Also recorded” adds a separate entry of the source.

Assays:
[1] = tested on: colon cancer CN1572P5 PDX; test: Tumor growth of colon cancer CN1572P5 PDX in non-HLA matched Hu-CD34 NSG mice; assay type: in vivo, mouse; settings: tumor growth curves over 21 days; 5-FU i.v. about 20 mg/kg Q7dx2; Avastin i.p. about 10 mg/kg twice a week, 5 doses
Description: To test whether the subject Hu-CD34 NSG™ mice with non-HLA matched PDX can be used to evaluate drug efficacy against the PDX, using clinically relevant standard-of-care (SOC) treatments, tumor growth curves over 21 days were obtained for a negative control/vehicle group, and two treatment groups using 5-FU and Avastin, respectively, against the colon cancer CN1572P5 PDX. Specifically, 5-FU was administered i.v. at a dose of about 20 mg/kg body weight, Q7d×2 (every 7 days, 2 total doses). Avastin was administered i.p. at a dose of about 10 mg/kg body weight, twice a week, 5 total doses. Vehicle (D5W) was administered i.v., Q7d×3.

[2] = tested on: breast cancer cell line MDA-MB-231; test: Tumor growth of PD-L1+ MDA-MB-231 breast cancer model in non-HLA matched Hu-CD34 NSG mice; assay type: in vivo, mouse; settings: for tumor growth of MDA-MB-231 tumors: growth curves over 21 days, cisplatin i.v. about 2 mg/kg Q7dx2
Description: First, to determine if the checkpoint inhibitor pembrolizumab (Keytruda) is efficacious in the subject non-HLA matched PDX humanized NSG model, a PDX huNSG model was established according to the methods of the invention. […] This cell line expresses very high levels of PD-L1 on the tumor cell surface that can bind to PD-1 on T-cells and induce anergy—about 94.3% of the MDA-MB-231 cells expressed PD-L1. The tumor-engrafted humanized NSG mice were then treated either with vehicle, Cisplatin, or Prembrolizumab (Keytruda).
(§1) Tumor growth curves over 21 days were obtained for a negative control/vehicle group, and two treatment groups using cisplatin and pembrolizumab (Keytruda), respectively, against the MDA-MB-231 PDX. Specifically, cisplatin was administered i.v. at a dose of about 2 mg/kg body weight, Q7d×2 (every 7 days, 2 total doses). Pembrolizumab (Keytruda) was administered i.p. at a dose of about 5-10 mg/kg body weight, Q5d×4 (every 5 days, 4 total doses). Vehicle (Saline) was administered i.p., Q5d×4.
At the termination of the growth study, peripheral blood of the experimental mice were collected and assayed for human CD19^+ B cells and human CD4^+ and CD8^+ T-cells.
Tumors were also collected and assayed for human CD4^+ and CD8^+ infiltrating T-cells.

breast cancer BR1126 PDX = test: Tumor growth of PD-L1+ TNBC BR1126 breast cancer PDX in non-HLA matched Hu-CD34 NSG mice; assay type: in vivo, mouse; settings: for tumor growth compared to the vehicle control: growth curves over 21 days, cisplatin i.v. about 2 mg/kg Q7dx3, Keytruda i.p. about 5-10 mg/kg Q5dx4
Description: Specifically, humanized NSG mice were engrafted with 5×10^6 of non-HLA matched PD-L1-positive breast cancer cell line BR1126 cells per mouse via s.c. inoculation. This can be done with the presence of matrigel. About 56.9% of the BR1126 cells expressed PD-L1.
as §1, with “the BR1126” for “the MDA-MB-231”, “weight, Q7d×3” for “weight, Q7d×2”, “days, 3” for “days, 2”
Tumors from the Keytruda-treated mice were collected at the end of the study and examined for lymphocyte infiltration.

[3] = tested on: CD45+CD8+ infiltrating T lymphocytes in PDX tumor samples; test: Immuno-staining of treated PDX tumor samples for CD45+CD8+ infiltrating T lymphocytes; assay type: in vivo, mouse; settings: compared to chemotherapy alone
Description: In a similar experiment, immuno-staining was conducted on PDX tumor samples treated by chemotherapy alone, anti-PD1 agent Keytruda, and anti-CTLA4 agent ipilimumab, for the presence of CD45^+CD8^+ infiltrating T lymphocytes.

lung cancer LG1306 PDX = test: Tumor growth of PD-L1+ LG1306 lung cancer PDX in non-HLA matched Hu-CD34 NSG mice; assay type: in vivo, mouse
Description: Specifically, humanized NSG mice were engrafted with 5×10^6 of non-HLA matched PD-L1-positive PDX lung cancer cell line LG1306 per mouse. About 89.1% of the LG1306 cells expressed PD-L1.
Tumor growth curves over 24 days were obtained for a negative control/vehicle group, and two treatment groups using pembrolizumab (Keytruda), with or without the anti-mitotic chemotherapeutic agent Decotaxol, against the LG1306 PDX. Specifically, Decetaxol, when present, was administered i.v. at a dose of about 10 mg/kg body weight, Q7d×4 (every 7 days, 4 total doses). Pembrolizumab (Keytruda) was administered i.p. at a dose of about 5 mg/kg body weight, Q5d×6 (every 5 days, 6 total doses). Vehicle (Saline) was administered i.p., Q5d×6.

[4] = tested on: non-small-cell lung cancer, melanoma, and renal-cell cancer; settings: 296 patients; cited from earlier work
[5] = Keytruda i.p. about 5-10 mg/kg Q5dx4

Row | Molecule | efficacy against the non-HLA matched colon cancer PDX (tumor volume) [1] | tumor growth of MDA-MB-231 tumors [2, 5] | tumor growth compared to the vehicle control (breast cancer BR1126 PDX) | presence of CD45+CD8+ infiltrating T lymphocytes in PDX tumor samples [3] | also measured
1 | O=c1[nH]cc(F)c(=O)[nH]1 [5-FU] | effective | – | – | – | –
2 | N.N.[Cl][Pt][Cl] [Cisplatin, cisplatin] | – | only marginally reduced the growth rate | significantly reduced tumor growth | – | –
3 | Avastin: clinically relevant standard-of-care (SOC) anti-cancer drug | effective | – | – | – | –
4 | Keytruda: anti-PD-1 antibody drug; highly selective, humanized IgG4-kappa monoclonal antibody against PD-1 | – | delayed tumor growth significantly | significantly reduced tumor growth | strong presence | time after start of treatment to significant tumor growth delay [2, 5]: ≤ 2 weeks; human T and B cells in peripheral blood and infiltrating T cells (TILs) in tumors versus other treatment groups ([2]; at termination of the growth study): absence of additional TILs; tumor lymphocyte infiltration compared to the vehicle treated mice (breast cancer BR1126 PDX; tumors collected at the end of the study): did not increase tumor infiltration; mice not responding (lung cancer LG1306 PDX; Keytruda alone): one of 10; tumor growth of LG1306 PDX compared to vehicle-treated controls (lung cancer LG1306 PDX; growth curves over 24 days, Keytruda i.p. about 5 mg/kg Q5dx6, Docetaxel i.v. about 10 mg/kg Q7dx4, all mice): reduced growth; also recorded: effective; tumor growth, non-responding mouse taken out of the calculations (lung cancer LG1306 PDX; one Keytruda non-responder excluded): significant decrease in tumor growth
5 | ipilimumab: anti-CTLA4 agent; FDA-approved CTLA-4 inhibitor for treating melanoma | – | – | – | strong presence | –
6 | nivolumab: fully human IgG4 monoclonal antibody against PD-1 | – | – | – | – | clinical response [4]: complete or partial responses
